Laboratory results published in publication PMC3499368, “Evolution of Minimal Specificity and Promiscuity in Steroid Hormone Receptors” (PLoS Genetics, 2012).
Read-outs that look alike come from different tables or passages of the source.

Experiments:
AncSR2-LBD = assay: luciferase reporter gene assay, Gal4-DBD fusion of AncSR2-LBD in CHO-K1 cells, activation; type: cell-based; conditions: for EC50: AncSR2, representative dose activation curves (Fig. S4) and Table S5 sections c-i
Source text: To experimentally test these hypotheses, we synthesized cDNAs for the AncSR1 and AncSR2 LBD protein sequences, expressed them as Gal4-DBD fusion constructs, and characterized their sensitivity to hormones using luciferase reporter gene assays. […] It was unresponsive to a broad array of androgens, progestagens, and corticosteroids, as well as cholesterol (Figure 2A, Figure S3).
For AncSR2, we identified all plausible alternate reconstructions (those with posterior probability >0.20 excluding biochemically similar K/R, D/E, S/T, and I/L differences) and introduced each alternate state individually into the AncSR2 background using the Quikchange Mutagenesis kit (Stratagene), verified clones by sequencing, and repeated the activation assays with each version of AncSR2 (Figure S6). The ML AncSR2 sequence reconstructed on the ML tree had high baseline activation in the absence of ligand; this phenotype is almost certainly an artifact, because constitutive baseline activity is not present in any of AncSR2's extant descendants; it is well-established that some amino acid replacements can cause nuclear receptors to become constitutive by marginally stabilizing the active conformation in the absence of hormone. […] The “constitutive” Leu79 state is weakly supported on the ML tree (PP = 0.59), and has no support (PP = 0.00) on the phylogeny that is most parsimonious in terms of gene duplications and losses; in contrast, the “non-constitutive” state Met79 has PP = 0.41 on the ML tree and PP = 1.00 on the rearranged gene duplication/loss tree (Figure S12, Table S8). The AncSR2 sequence used for all experiments reported in the text therefore contains state Met79. The other alternate reconstructions were then reintroduced into this AncSR2 sequence: none qualitatively changed the receptor's sensitivity to the various classes of steroid hormones, except for A171V, which conferred constitutive activity (Figure S6).

[1] = target: T1, human mineralocorticoid receptor (hMR) (Homo sapiens, UniProt P08235); assay: luciferase reporter assay, human MR LBD; type: cell-based
T1 sequence (P08235 736-984): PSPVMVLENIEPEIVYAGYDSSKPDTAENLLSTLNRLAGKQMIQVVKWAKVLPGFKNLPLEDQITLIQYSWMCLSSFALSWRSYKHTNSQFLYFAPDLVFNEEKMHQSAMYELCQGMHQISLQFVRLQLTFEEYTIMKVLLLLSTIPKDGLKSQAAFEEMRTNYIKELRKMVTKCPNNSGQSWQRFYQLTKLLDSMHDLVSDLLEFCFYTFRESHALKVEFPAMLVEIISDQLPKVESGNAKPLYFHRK

AncSR1-LBD = assay: luciferase reporter gene assay, Gal4-DBD fusion of AncSR1-LBD in CHO-K1 cells, activation; type: cell-based
Source text: To experimentally test these hypotheses, we synthesized cDNAs for the AncSR1 and AncSR2 LBD protein sequences, expressed them as Gal4-DBD fusion constructs, and characterized their sensitivity to hormones using luciferase reporter gene assays.

[2] = target: T2, human estrogen receptor alpha (hERα) (Homo sapiens, UniProt P03372); assay: luciferase reporter assay, human ERα LBD; type: cell-based; conditions: Fig. S8
T2 sequence (P03372 311-595 limits assumed): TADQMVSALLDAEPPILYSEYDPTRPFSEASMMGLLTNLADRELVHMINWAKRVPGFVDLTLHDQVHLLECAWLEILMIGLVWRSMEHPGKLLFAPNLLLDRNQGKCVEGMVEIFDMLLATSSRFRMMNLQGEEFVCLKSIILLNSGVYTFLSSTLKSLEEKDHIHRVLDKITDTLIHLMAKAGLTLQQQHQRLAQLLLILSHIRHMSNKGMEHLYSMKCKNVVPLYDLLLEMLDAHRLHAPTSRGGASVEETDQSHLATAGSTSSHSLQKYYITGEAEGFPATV

[3] = target: T3, estrogen receptor ligand binding domain (Capitella capitata, UniProt C0IRV2); assay: activation of the estrogen receptor ligand binding domain of Capitella capitata
T3 sequence (C0IRV2 151-381): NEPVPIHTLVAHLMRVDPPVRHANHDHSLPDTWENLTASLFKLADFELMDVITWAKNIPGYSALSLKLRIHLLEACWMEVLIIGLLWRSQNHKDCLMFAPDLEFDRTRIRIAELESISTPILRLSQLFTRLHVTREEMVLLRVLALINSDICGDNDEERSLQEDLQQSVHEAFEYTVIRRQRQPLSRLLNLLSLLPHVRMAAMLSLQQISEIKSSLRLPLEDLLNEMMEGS
Source text: (§4) Fig. S8 Activation of the estrogen receptor ligand binding domains of two annelids (Capitella capitata, a polychaete worm &
(§5) Values adjacent to the hormone legends (red squares and black triangles) indicate the EC50 value for

[4] = target: T4, estrogen receptor ligand binding domain (Platynereis dumerilii, UniProt C0IR13); assay: activation of the estrogen receptor ligand binding domain of Platynereis dumerilii
T4 sequence (C0IR13 197-482): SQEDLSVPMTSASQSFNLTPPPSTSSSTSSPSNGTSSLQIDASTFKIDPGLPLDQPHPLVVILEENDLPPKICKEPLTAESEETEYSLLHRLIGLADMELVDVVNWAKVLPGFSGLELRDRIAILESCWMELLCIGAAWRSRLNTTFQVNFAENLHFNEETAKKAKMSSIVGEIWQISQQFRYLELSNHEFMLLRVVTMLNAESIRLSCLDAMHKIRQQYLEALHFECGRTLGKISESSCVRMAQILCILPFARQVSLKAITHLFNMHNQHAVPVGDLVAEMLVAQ
Source text: as §4, §5

AncSR1 = assay: luciferase reporter assay, inhibition of AncSR1 in the presence of estradiol; type: cell-based; conditions: with estradiol
AncSR2 = assay: luciferase reporter assay, inhibition of AncSR2 in the presence of EC80 11-deoxycorticosterone; conditions: in the presence of EC80 11-deoxycorticosterone (1.7 nM)
AncSR1_Alt1 = assay: luciferase reporter assay, alternative reconstruction AncSR1_Alt1; type: cell-based; conditions: Alt1, Fig. S5B
Source text: (§1) To determine the robustness of functional inferences to statistical uncertainty in the reconstruction of AncSR1 and AncSR2, we used two approaches. AncSR1 had too many ambiguously reconstructed sites to examine each such residue individually, so we computationally sampled from the posterior probability distribution of reconstructed amino acid states to generate a cloud of possible ancestral sequences, each harboring a large number of alternate states. Specifically, we generated 1,000,000 possible ancestral sequences by sampling from the posterior probability distribution of states at each site. […] We synthesized these five radically alternative ancestral reconstructions de novo and repeated the functional assays.
(§2) A) Distribution of posterior probabilities of 1 million protein sequences assembled by sampling amino acid states at each site from the posterior probability distribution for AncSR1 LBD. The ML reconstruction (AncSR1-ML) and the five alternative sequences with the highest posterior probability (Alt1-Alt5) in the 1 million samples are […]
(§3) The column height and error bars indicate the mean and SEM of three independent experiments, respectively. […]

AncSR1_Alt2 = assay: luciferase reporter assay, alternative reconstruction AncSR1_Alt2; type: cell-based; conditions: Alt2, Fig. S5B
Source text: as §1, §2, §3

AncSR1_Alt3 = assay: luciferase reporter assay, alternative reconstruction AncSR1_Alt3; type: cell-based; conditions: Alt3, Fig. S5B
Source text: as §1, §2, §3

AncSR1_Alt4 = assay: luciferase reporter assay, alternative reconstruction AncSR1_Alt4; type: cell-based; conditions: Alt4, Fig. S5B
Source text: as §1, §2, §3

AncSR1_Alt5 = assay: luciferase reporter assay, alternative reconstruction AncSR1_Alt5; type: cell-based; conditions: Alt5, Fig. S5B
Source text: as §1, §2, §3

[5] = AncSR1, representative dose activation curves (Fig. S3) and Table S5 section b
[6] = AncSR2, Table S5 section c, pairs H1/H2: 23/8, 19/18, listed as given under Hormone 1

## C[C@]12CCC(=O)C=C1CC[C@@H]1[C@@H]2[C@@H](O)C[C@@]2(C)[C@H]1CC[C@]2(O)C(=O)CO [cortisol]
AncSR2-LBD; read-out: EC50
  EC50: 9.8 nM
[1]
  EC50: 37 nM

## CC(=O)[C@H]1CCC2C3CCc4cc(O)ccc4C3CC[C@@]21C (stereo partly shown) [NPT, 19-nor-1,3, 5(10)-pregnatriene-3-ol-20-one]
AncSR1-LBD; [5]
  EC50: 179 nM
AncSR1-LBD; luciferase reporter
  activation of AncSR1 (in words): almost as potent an AncSR1 activator as endogenous estrogens
AncSR2-LBD; [6]
  Ratio H1/H2 of EC50, preference for non-aromatized A-ring: 113.75
  Ratio H2/H1 of EC50, preference for non-aromatized A-ring: 0.01
AncSR2-LBD
  EC50: 182 nM
[2]
  EC50: 5.4 nM
[3]
  EC50: 8.7 nM
[4]
  EC50: 1.2 nM

## C[C@]12CC[C@@H]3c4ccc(O)cc4C[C@@H](CCCCCCCCC[S+]([O-])CCCC(F)(F)C(F)(F)F)[C@H]3[C@@H]1CC[C@@H]2O (stereo partly shown) [ICI 182,780, fulvestrant]
AncSR1
  inhibition of AncSR1 (in words): competitively inhibited
AncSR2
  inhibition of AncSR2 (in words): not inhibited

## C[C@]12CC[C@@H]3c4ccc(O)cc4CC[C@H]3[C@@H]1CC[C@@H]2O [estradiol]
AncSR1-LBD; AncSR1, estradiol concentration used in inhibition assay
  EC80: 200 nM
AncSR1-LBD; [5]
  EC50: 49 nM
AncSR1-LBD; AncSR1-ML, Fig. S5B
  EC50: 66 nM
AncSR2-LBD; read-out: EC50
  EC50: > 10000 nM
AncSR1_Alt1
  EC50: 50 nM
AncSR1_Alt2
  EC50: 350 nM
AncSR1_Alt3
  EC50: 12 nM
AncSR1_Alt4
  EC50: 316 nM
AncSR1_Alt5
  EC50: 94 nM
[3]
  EC50: 8.6 nM
[4]
  EC50: 12 nM

## CC/C(=C(\c1ccc(O)cc1)c1ccc(OCCN(C)C)cc1)c1ccccc1 [4-hydroxytamoxifen, 4-Hydroxytamoxifen]
AncSR1
  inhibition of AncSR1 (in words): competitively inhibited
AncSR2
  inhibition of AncSR2 (in words): not inhibited
